The values below come from patent US8765742B2, “Crystalline methylthioninium chloride hydrates” (Wista Laboratories Ltd., priority 2009, dated 2014).

A short description of the data set: Thermodynamic stability of the crystalline hydrate form at room temperature as a function of relative humidity. The class given is physicochemical. The settings on record: over the whole range of relative humidity.

In the case of `CN(C)c1ccc2nc3ccc(=[N+](C)C)cc-3sc2c1` [Form B, methylthioninium chloride dihydrate], the “thermodynamic stability at room temperature” value is “thermodynamically metastable”.
